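Values below derive from 48-hour exposures of cells grown in 96-well plates, with endpoints linearly interpolated between the two concentrations bracketing the appropriate inhibition level. GI50 is the concentration that inhibits growth by half. Definition used: TGI = concentration required for complete inhibition of growth.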
Experiments:
Assay in all cases: DTP human tumour cell line panel, 48 h
786-0 renal = test system: 786-0 renal
ACHN renal = test system: ACHN renal
BT-549 breast = test system: BT-549 breast
CAKI-1 renal = test system: CAKI-1 renal
CCRF-CEM leukemia = test system: CCRF-CEM leukemia
DU-145 prostate = test system: DU-145 prostate
EKVX NSCLC = test system: EKVX NSCLC
HCC-2998 colon = test system: HCC-2998 colon
HCT-15 colon = test system: HCT-15 colon
HOP-92 NSCLC = test system: HOP-92 NSCLC
IGROV1 ovarian = test system: IGROV1 ovarian
K-562 leukemia = test system: K-562 leukemia
MALME-3M melanoma = test system: MALME-3M melanoma
MCF7 breast = test system: MCF7 breast
MDA-MB-231 breast = test system: MDA-MB-231 breast
MDA-MB-435 = test system: MDA-MB-435
MOLT-4 leukemia = test system: MOLT-4 leukemia
NCI-H460 lung = test system: NCI-H460 lung
NCI/ADR-RES ovarian = test system: NCI/ADR-RES ovarian
OVCAR-3 ovarian = test system: OVCAR-3 ovarian
OVCAR-4 ovarian = test system: OVCAR-4 ovarian
OVCAR-5 ovarian = test system: OVCAR-5 ovarian
PC-3 prostate = test system: PC-3 prostate
RXF 393 renal = test system: RXF 393 renal
SF-295 CNS = test system: SF-295 CNS
SF-539 CNS = test system: SF-539 CNS
SK-MEL-28 melanoma = test system: SK-MEL-28 melanoma
SK-OV-3 ovarian = test system: SK-OV-3 ovarian
SN12C renal = test system: SN12C renal
SNB-19 CNS = test system: SNB-19 CNS
SNB-75 CNS = test system: SNB-75 CNS
SR leukemia = test system: SR leukemia
TK-10 renal = test system: TK-10 renal
UACC-62 melanoma = test system: UACC-62 melanoma
UO-31 renal = test system: UO-31 renal
A498 renal = test system: A498 renal
A549 NSCLC = test system: A549 NSCLC
COLO 205 colon = test system: COLO 205 colon
HCT-116 colon = test system: HCT-116 colon
HL-60(TB) leukemia = test system: HL-60(TB) leukemia
HOP-62 NSCLC = test system: HOP-62 NSCLC
HS 578T breast = test system: HS 578T breast
HT29 colon = test system: HT29 colon
KM12 colon = test system: KM12 colon
LOX IMVI melanoma = test system: LOX IMVI melanoma
M14 melanoma = test system: M14 melanoma
NCI-H226 lung = test system: NCI-H226 lung
NCI-H23 lung = test system: NCI-H23 lung
NCI-H522 lung = test system: NCI-H522 lung
OVCAR-8 ovarian = test system: OVCAR-8 ovarian
RPMI-8226 leukemia = test system: RPMI-8226 leukemia
SF-268 CNS = test system: SF-268 CNS
SK-MEL-2 melanoma = test system: SK-MEL-2 melanoma
SK-MEL-5 melanoma = test system: SK-MEL-5 melanoma
SW-620 colon = test system: SW-620 colon
T-47D breast = test system: T-47D breast
U251 CNS = test system: U251 CNS
UACC-257 melanoma = test system: UACC-257 melanoma

## C=C(C)[C@@H]1CC[C@]2(COP(=O)(OCC)OCC)CC[C@]3(C)[C@H](CC[C@@H]4[C@@]5(C)CCCNC(C)(C)[C@@H]5CC[C@]43C)[C@@H]12
786-0 renal
  GI50: 1710 nM
  TGI: 3210 nM
ACHN renal
  GI50: 1730 nM
  TGI: 3140 nM
BT-549 breast
  GI50: 1680 nM
  TGI: 3090 nM
CAKI-1 renal
  GI50: 1500 nM
  TGI: 2990 nM
CCRF-CEM leukemia
  GI50: 1710 nM
  TGI: 3850 nM
DU-145 prostate
  GI50: 1790 nM
  TGI: 3390 nM
EKVX NSCLC
  GI50: 1460 nM
  TGI: 2880 nM
HCC-2998 colon
  GI50: 1720 nM
  TGI: 3220 nM
HCT-15 colon
  GI50: 1560 nM
  TGI: 3050 nM
HOP-92 NSCLC
  GI50: 1230 nM
  TGI: 2570 nM
IGROV1 ovarian
  GI50: 1610 nM
  TGI: 3180 nM
K-562 leukemia
  GI50: 1660 nM
  TGI: 7000 nM
MALME-3M melanoma
  GI50: 1680 nM
  TGI: 3370 nM
MCF7 breast
  GI50: 1330 nM
  TGI: 2970 nM
MDA-MB-231 breast
  GI50: 1750 nM
  TGI: 3330 nM
MDA-MB-435
  GI50: 1730 nM
  TGI: 3180 nM
MOLT-4 leukemia
  GI50: 1850 nM
  TGI: 4720 nM
NCI-H460 lung
  GI50: 1790 nM
  TGI: 4620 nM
NCI/ADR-RES ovarian
  GI50: 1660 nM
  TGI: 3260 nM
OVCAR-3 ovarian
  GI50: 1670 nM
  TGI: 3380 nM
OVCAR-4 ovarian
  GI50: 1540 nM
  TGI: 3130 nM
OVCAR-5 ovarian
  GI50: 1720 nM
  TGI: 3140 nM
PC-3 prostate
  GI50: 1590 nM
  TGI: 2980 nM
RXF 393 renal
  GI50: 1550 nM
  TGI: 2910 nM
SF-295 CNS
  GI50: 1680 nM
  TGI: 3150 nM
SF-539 CNS
  GI50: 1730 nM
  TGI: 3240 nM
SK-MEL-28 melanoma
  GI50: 1750 nM
  TGI: 3180 nM
SK-OV-3 ovarian
  GI50: 1690 nM
  TGI: 3250 nM
SN12C renal
  GI50: 1570 nM
  TGI: 3150 nM
SNB-19 CNS
  GI50: 1710 nM
  TGI: 3170 nM
SNB-75 CNS
  GI50: 1220 nM
  TGI: 2850 nM
SR leukemia
  GI50: 1410 nM
  TGI: 4090 nM
TK-10 renal
  GI50: 1860 nM
  TGI: 3580 nM
UACC-62 melanoma
  GI50: 1700 nM
  TGI: 3200 nM
UO-31 renal
  GI50: 1440 nM
  TGI: 2810 nM

## COc1cccc2c1C=CC1(O2)Oc2cccc(OC)c2C=C1C (stereo unspecified)
786-0 renal
  GI50: 563 nM
A498 renal
  GI50: 486 nM
  TGI: 5430 nM
A549 NSCLC
  GI50: 821 nM
  TGI: > 100000 nM
ACHN renal
  GI50: 699 nM
  TGI: > 100000 nM
BT-549 breast
  GI50: 656 nM
  TGI: 6390 nM
CAKI-1 renal
  GI50: 461 nM
  TGI: > 100000 nM
CCRF-CEM leukemia
  GI50: 356 nM
  TGI: 3320 nM
COLO 205 colon
  GI50: 243 nM
  TGI: 587 nM
DU-145 prostate
  GI50: 727 nM
  TGI: > 100000 nM
EKVX NSCLC
  GI50: 2110 nM
  TGI: > 100000 nM
HCC-2998 colon
  GI50: 1430 nM
  TGI: 9320 nM
HCT-116 colon
  GI50: 413 nM
  TGI: 10500 nM
HCT-15 colon
  GI50: 420 nM
  TGI: > 43600 nM
HL-60(TB) leukemia
  GI50: 364 nM
  TGI: > 100000 nM
HOP-62 NSCLC
  GI50: 1490 nM
  TGI: > 100000 nM
HOP-92 NSCLC
  GI50: 316 nM
HS 578T breast
  GI50: 2100 nM
  TGI: > 100000 nM
HT29 colon
  GI50: 404 nM
IGROV1 ovarian
  GI50: 794 nM
  TGI: > 100000 nM
K-562 leukemia
  GI50: 347 nM
  TGI: > 100000 nM
KM12 colon
  GI50: 544 nM
  TGI: > 100000 nM
LOX IMVI melanoma
  GI50: 515 nM
  TGI: 3950 nM
M14 melanoma
  GI50: 345 nM
  TGI: 4890 nM
MALME-3M melanoma
  GI50: 899 nM
  TGI: 48000 nM
MCF7 breast
  GI50: 383 nM
  TGI: > 100000 nM
MDA-MB-231 breast
  GI50: 596 nM
  TGI: > 60200 nM
MDA-MB-435
  GI50: 226 nM
  TGI: 556 nM
MOLT-4 leukemia
  GI50: 430 nM
NCI-H226 lung
  GI50: 1750 nM
  TGI: > 100000 nM
NCI-H23 lung
  GI50: 1370 nM
  TGI: > 100000 nM
NCI-H460 lung
  GI50: 426 nM
  TGI: 2490 nM
NCI-H522 lung
  GI50: 290 nM
NCI/ADR-RES ovarian
  GI50: 417 nM
  TGI: > 81700 nM
OVCAR-4 ovarian
  GI50: 6390 nM
  TGI: > 100000 nM
OVCAR-5 ovarian
  GI50: 1300 nM
  TGI: > 100000 nM
OVCAR-8 ovarian
  GI50: 1340 nM
  TGI: 6820 nM
PC-3 prostate
  GI50: 376 nM
  TGI: > 36400 nM
RPMI-8226 leukemia
  GI50: 352 nM
  TGI: 2350 nM
RXF 393 renal
  GI50: 300 nM
  TGI: 1630 nM
SF-268 CNS
  GI50: 1840 nM
  TGI: > 100000 nM
SF-295 CNS
  GI50: 359 nM
  TGI: > 44200 nM
SF-539 CNS
  GI50: 363 nM
  TGI: 1840 nM
SK-MEL-2 melanoma
  GI50: 588 nM
SK-MEL-28 melanoma
  GI50: 2880 nM
  TGI: > 100000 nM
SK-MEL-5 melanoma
  GI50: 521 nM
  TGI: 11000 nM
SK-OV-3 ovarian
  GI50: 700 nM
  TGI: > 100000 nM
SN12C renal
  GI50: 683 nM
  TGI: > 100000 nM
SNB-19 CNS
  GI50: 649 nM
  TGI: > 100000 nM
SNB-75 CNS
  GI50: 218 nM
  TGI: 1510 nM
SR leukemia
  GI50: 284 nM
  TGI: 2060 nM
SW-620 colon
  GI50: 434 nM
  TGI: > 100000 nM
T-47D breast
  GI50: 858 nM
  TGI: > 100000 nM
TK-10 renal
  GI50: 12200 nM
  TGI: > 100000 nM
U251 CNS
  GI50: 415 nM
  TGI: 5520 nM
UACC-257 melanoma
  GI50: 1510 nM
  TGI: > 100000 nM
UO-31 renal
  GI50: 1270 nM
  TGI: > 100000 nM

Reference: PubChem BioAssay (NCI)
